# Legend:
# LIN28 = test: Western blot of LIN28 levels in P19 cells treated with IGF1R and calpain inhibitors; assay type: cell-based; conditions: acute treatment (~12 hrs)
# Text: FIGS. 4A-4B show regulation of LIN28 levels by RBM3, IGF1R, and calpain. (A) Western blot showing the effect of RBM3 knock-down (siRNA) on LIN28 levels in P19 cells treated at the neurosphere stage with (or without) retinoic acid (RA) to induce neural differentiation. RBM3 knock-down increases LIN28 and blocks the ability of RA to decrease LIN28. (B) Western blots showing reduction of LIN28 in P19 cells following acute treatment (˜12 hrs) with inhibitors of IGF1R and calpain (each of which increases the expression of the dephosphorylated form of RBM3). […] HDAC is a loading control.
# FIGS. 7A-7D show results from additional studies of reducing LIN28 levels via synergistic dual inhibitor strategies. (A & B) Graphs of changes in RBM3 and LIN28 expression in P19 cells treated with the IGF1R inhibitor PPP (10 nM), the calpain inhibitor calpeptin (Cpep, 50 μM), and a combination of PPP plus Cpep (A: n=10-14; B: n=20-24). (C) (top panels) Example of Westerns of LIN28 in P19 cells exposed to PPP, Cpep, and PPP+Cpep; (bottom panels) Example of Westerns of LIN28 and RBM3 in samples from P19 cells treated in triplicate with control and Cpep+PPP conditions. (D) Fold change in let-7 family miRNAs and miR-21 in P19 cells treated with PPP+Cpep as measured by qRT-PCR (n=4). All treatments were for 36 hours. […]
# RBM3 = test: 2D Western blot of RBM3 phosphorylation forms in P19 cells after calpain inhibition; assay type: cell-based
# Text: (Top) 2D Western blot of RBM3 in vehicle-treated (DMSO) P19 cells. Red arrows point to exogenously expressed mutant of RBM3 (A4F) with 4 C-term Y to F mutations, and to two phosphorylated endogenous isoforms of RBM3 that differ by a single arginine (Arg). […] A basic spot not present in the control condition appears that corresponds to the pI of dephosphorylated Arg+RBM3, the form of RBM3 that preferentially associates with pre-miRNAs. We further observed that calpain inhibition rescues expression of dephosphorylated RBM3 in pluripotent cells. Calpains are Ca^++-activated cysteine proteases that regulate diverse cellular processes. Calpain's role in pluripotent and cancerous cells prompted us to test whether it regulates the expression of the dephosphorylated form of RBM3 in pluripotent cells (and accounts for the difficulty in expressing non-phosphorylatable mutants in these cells).
SMILES,LIN28 levels (Western blot) (LIN28; Cpep 50 μM),RBM3 pI distribution (2D Western); basic spot corresponding to dephosphorylated Arg+RBM3 appears (RBM3; P19 cells incubated with calpain inhibitor vs DMSO vehicle),levels of a non-phosphorylatable mutant of RBM3 (RBM3; pluripotent P19 cells),levels of the endogenous dephosphorylated form of RBM3 that binds pre-miRNAs (dephos Arg+) (RBM3; pluripotent P19 cells),LIN28 levels (Western blot) (LIN28; PPP 10 nM)
CCCC[C@@H](C=O)NC(=O)[C@H](CC(C)C)NC(=O)OCc1ccccc1 [calpeptin],reduces LIN28 levels,shift in RBM3 pI distribution,increased,increased,–
COc1cc([C@@H]2c3cc4c(cc3[C@H](O)[C@H]3COC(=O)[C@@H]23)OCO4)cc(OC)c1OC [picropodophyllin],–,–,–,–,reduces LIN28 levels
